This assay has as its system CEM cells HIV-1 protection, formazan growth assay. Kind of assay: NCI AIDS Antiviral Assay. To be noted: for IC50: measured here: growth of uninfected CEM cells. The method, boiled down: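 Category rules: moderately active means at least 50% protection on retest, and confirmed active means 100% protection reproducibly. The underlying data came from a formazan growth assay in HIV-1-infected CEM cells.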

The values below come from PubChem BioAssay AID179 (DTP/NCI, 2004).

Where “and” joins values, the source holds several entries; their conditions need not be identical. Equal entries are not always repeated. Calls of active or inactive are those of the source.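 How the source made its calls: active means compounds giving half or more protection of infected cells from virus-caused growth loss, again on retest; inactive means the rest.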 Bounds are passed on as bounds.

Broadly, the EC50 is the concentration that produces a half-maximal response. Usually IC50 stands for the concentration at which inhibition is half-maximal. Consider `O=c1oc2ccccc2n1CCN1CCCCC1`, for which the EC50 is greater than 200 µM and the IC50 is greater than 200 µM.

Take `CCCC[Si](CCCC)(CCCC)O[C@@H](/C=C/C(=O)OCC)[C@H](Cc1ccccc1)O[Si](CCCC)(CCCC)CCCC`: the EC50 is greater than 200 µM and the IC50 was greater than 200 µM.

Consider `C[n+]1c(-c2ccc(/C=N\NC(=O)c3ccc(C(=O)N/N=C/c4ccc(-c5cn6ccsc6[n+]5C)cc4)cc3)cc2)cn2ccsc21`, for which the EC50 was greater than 50.1 µM and the IC50 was determined as 0.501 µM.

In the case of `CC[C@@]1(O)C(=O)OCc2c1cc1n(c2=O)Cc2c-1nc1ccccc1c2Cl`, the EC50 was greater than 10 µM and the half-inhibitory concentration (IC50) is 0.0331 µM.

`COc1ccc(OC(C(=O)O)c2ccccc2)c2c1CCCC2=O` (centres undefined): the result was inactive.

`CC(=O)CC(=O)N1CCSC1=S`: the EC50 was 126 µM and the IC50 is greater than 200 µM.

Turning to `CCCCCC/C=C\CCCCCCCCC(=O)c1cccc(OC)c1OC`, the EC50 is greater than 200 µM and the IC50 was greater than 200 µM.

Turning to `Nc1n[n+]([O-])c2cc([N+](=O)[O-])ccc2[n+]1[O-]`, the EC50 is greater than 20 µM and the IC50 was found to be 0.603 µM.

On to `c1ccc(N=C2c3ccsc3C(=Nc3ccccc3)c3ccsc32)cc1`, for which the EC50 was greater than 200 µM and the IC50 is 2.51 µM.

As to `O=[N+]([O-])c1cccc(-c2nc3ccccc3[nH]2)c1`, the outcome was inactive.

Take `CC1=NN(C(=O)Cc2ccccc2)C(=O)/C1=C\c1cccc(O)c1`: the EC50 is greater than 22.4 µM and the half-inhibitory concentration (IC50) is greater than 22.4 µM.

`O=[N+]([O-])c1ccc(C2ON=C(c3ccccc3)N2C23CC4CC(CC(C4)C2)C3)cc1` (centres undefined): the EC50 was greater than 200 µM and the IC50 came out at 186 µM.

Turning to `O=C(O)C1CCN1Cc1ccc2ccccc2c1O` (centres undefined), the EC50 was greater than 200 µM and the IC50 amounted to 195 µM.

Take `O=C(Nc1nc(=S)c2c(ncn2CCOC(=O)c2ccccc2)[nH]1)c1ccccc1`: the EC50 was greater than 61.7 µM and the IC50 was greater than 61.7 µM.

With `COc1cc(C(c2c(O)c3ccccc3oc2=O)c2c(O)c3ccccc3oc2=O)cc(OC)c1OC`, the EC50 is greater than 200 µM and the IC50 turned out to be 93.3 µM.

Take `C/C=C1\CN2CCc3c([nH]c4ccccc34)C2CC1CC(=O)N(C)C` (centres undefined): the EC50 was greater than 200 µM and the IC50 was greater than 200 µM.

Consider `CCCCCCN(CCCCCC)CC(=O)Nc1ccc(S(=O)(=O)c2ccc(NC(=O)CN(CCCCCC)CCCCCC)cc2)cc1`, for which the EC50 is greater than 200 µM and the IC50 turned out to be 11.5 µM.

Regarding `O=C1CC2C=CC1C2CO` (centres undefined), the result was inactive.

As to `CC(CC(C)(C)[N+](C)(C)C)[N+](C)(C)C` (centres undefined), the EC50 was greater than 200 µM and the IC50 is greater than 200 µM.

As to `CC1=NN2C(=N)/C(=C/c3ccccc3)C(=O)N=C2S1`, the EC50 is greater than 200 µM and the IC50 is greater than 200 µM.

Consider `COC(=O)C1CC(=O)CCC1c1ccccc1` (centres undefined), for which the EC50 is greater than 347 µM and the IC50 was greater than 347 µM.

For the molecule `CN1C(=O)CC2CCC(=O)N2c2cccnc21` (centres undefined), the EC50 was greater than 200 µM and the IC50 was greater than 200 µM.

For the molecule `CN(/N=C/c1cccc2cccnc12)c1ccc(Cl)cc1[N+](=O)[O-]`, the EC50 was greater than 200 µM and the IC50 amounted to 178 µM.

Turning to `CCc1nc(N)c2nc(-c3ccc(C#N)cc3)oc2n1`, the EC50 is greater than 100 µM and the IC50 is greater than 100 µM.

For `O=C(O)COc1ccc(O)c2c1C(=O)CCCC2=O`, the result was inactive.

Regarding `CCCCCCCCCCCCCC(=O)O[C@H]1CC[C@H](NC(=O)[C@H](OC)[C@H](O)[C@@H](O)[C@H](O)/C=C/C(C)C)C(=O)NC1`, the EC50 was greater than 2 µM and the IC50 worked out at 0.00661 µM.

Consider `O=C1CSC(C(N=Nc2ccc(Cl)cc2)c2nc3ccccc3[nH]2)=N1` (centres undefined), for which the EC50 was greater than 1.95 µM and the IC50 was greater than 1.95 µM.

In the case of `COC(=O)/C(=N\NC(C)(C)C)C(C(=O)OC)C(=O)C(=O)Nc1cc(Cl)ccc1Cl` (centres undefined), the outcome was inactive.

As to `COC(=O)[C@@H]1C[C@]2(CC=C(C)C)c3ccccc3N(S(=O)(=O)c3ccccc3)[C@@H]2N1C(=O)OC`, the EC50 was greater than 200 µM and the IC50 is 20 µM.

Consider `Cc1cc(C)c(-c2c(O)c(O)c(-c3ccccc3)c3ccccc23)c(C)c1`, for which the EC50 is greater than 200 µM and the half-inhibitory concentration (IC50) turned out to be 7.76 µM.

Turning to `CC(=O)C(=Cc1cccc(Br)c1)C(C)=O`, the EC50 was greater than 135 µM and the IC50 amounted to 7.41 µM.

With `Cc1cccc2c1Oc1cc(Cl)ccc1C2NC(=O)CCN1CCCCC1` (centres undefined), the EC50 was greater than 200 µM and the IC50 amounted to 11.2 µM.

With `O=C1NC(=O)C(=Cn2c(=S)sc3ccccc32)C(=O)N1`, the EC50 is greater than 200 µM and the half-inhibitory concentration (IC50) was greater than 200 µM.

As to `CN1C(c2ccccc2)(c2ccccc2)c2ccccc2S1(=O)=O`, the EC50 was greater than 200 µM and the concentration for half-maximal inhibition (IC50) came to 50.1 µM.

Consider `Cc1nn[n-]n1.N.N.N.N.N.[Cl-].[Co+3]`, for which the EC50 is greater than 832 µM and the IC50 was greater than 832 µM.

Take `COc1ccccc1NC(=O)/C(=C/n1c(=S)sc2ccccc21)C(C)=O`: the EC50 is greater than 200 µM and the half-inhibitory concentration (IC50) was 115 µM.

`Cc1cnc2nc(N)nc(N)c2n1`: the EC50 is greater than 200 µM and the IC50 was greater than 200 µM.

Take `Nn1c(-c2ccccc2Nc2ccccc2-c2n[nH]c(=S)n2N)n[nH]c1=S`: the EC50 is greater than 50.1 µM and the IC50 worked out at 6.17 µM.

Take `CC1(C)COC2=C(C1)C(=O)c1ccccc1C2=O`: the EC50 is greater than 200 µM and the IC50 was 0.708 µM.

On to `C[Si](C)(C)OC=C1CCCCC1`, for which the EC50 was greater than 200 µM and the IC50 was greater than 200 µM.

In the case of `Oc1ccc2ccccc2c1OCc1nnc(CCCCCCCCc2nnc(COc3c(O)ccc4ccccc34)n2Nc2ccccc2)n1Nc1ccccc1`, the EC50 was greater than 2 µM and the IC50 is greater than 2 µM.

For the molecule `[B]C(=O)NC(CC(C)C)C(=O)NCC(=O)NC1c2ccsc2C(=O)C1O` (centres undefined) (tested in a mixture with another compound), the EC50 was greater than 200 µM and the IC50 is greater than 200 µM.

Turning to `Cc1ccccc1C(C#N)C(=O)C(=O)Nc1cccc(Cl)c1` (centres undefined), the EC50 was greater than 417 µM and the IC50 was greater than 417 µM.

Take `NC(=O)CCC(Nc1c2ccccc2nc2ccccc12)C(=O)O` (centres undefined): the outcome was inactive.

Regarding `O=c1[nH]ccc(CNC23CC4CC(CC(C4)C2)C3)c1O`, the EC50 is greater than 45.7 µM and the IC50 was greater than 45.7 µM.

With `NC(=O)c1nc2ccccc2nc1Nc1ccc(Cl)cc1Cl`, the EC50 was greater than 1.58 µM and the IC50 was greater than 1.58 µM.

Consider `CC12C(C(=O)O)C1(c1ccccc1)C2C(=O)O` (centres undefined), for which the EC50 is greater than 1070 µM and the IC50 is greater than 1070 µM.

`COc1ccc(/C=c2\[nH]c3nc(=O)c(N4CCOCC4)c(N)n3c2=O)cc1`: the EC50 was greater than 200 µM and the IC50 was greater than 200 µM.

`COC(=O)C(=O)C(/C=N/C(=S)N=Nc1c(O)[nH]c2ccccc12)=C(\O)c1c(C)[nH]c2ccccc12`: the EC50 is 26.9 µM and the IC50 came out at 105 µM.

For `CCOC(=O)/C(F)=C/c1ccc(OC)cc1`, the EC50 was greater than 115 µM and the concentration for half-maximal inhibition (IC50) was greater than 115 µM.

As for `C/C(=N\[N+](C)(C)C)c1ccc(C)c(C)c1`, the EC50 is greater than 200 µM and the IC50 amounted to 102 µM.

On to `COc1ccc(/C=C\c2cc(OC)c(OC)c(OC)c2)cc1OP(=O)(O)O`, for which the EC50 is greater than 35.5 µM and the IC50 came to 0.0282 µM.

Take `CNC(C)(C)C(SSSC(c1ccc(Cl)cc1)C(C)(C)NC)c1ccc(Cl)cc1` (centres undefined): the EC50 was greater than 200 µM and the IC50 is 3.55 µM.

In the case of `COC1/C=C\C=C(/C)C(=O)NC2=CC(=O)C=C(C2=O)C(OC)C(C)CC(OC)C(OC)C(C)/C=C(/C)C1OC(N)=O` (centres undefined), the EC50 is greater than 63.1 µM and the IC50 was determined as 0.407 µM.

In the case of `C#CC1(O)CC[C@H]2[C@@H]3CCC4=CCCC[C@@H]4[C@H]3CC[C@@]21C` (some centres undefined), the EC50 is greater than 200 µM and the IC50 was determined as 30.9 µM.

Take `O=C1C(C2CCCCC2)CCCC1(CO)CO` (centres undefined): the outcome was inactive.

On to `O=C1COc2cc3c(cc2N1)SCC(=O)N3`, for which the EC50 is greater than 42.7 µM and the half-inhibitory concentration (IC50) is greater than 42.7 µM.

Consider `NNC(=O)/C(NC(=O)c1ccccc1)=C(\N)c1ccc(Cl)cc1`, for which the EC50 was greater than 282 µM and the IC50 stood at 162 µM.

In the case of `O=S(=O)(N1CCCCN(S(=O)(=O)C(F)(F)F)CCCN(S(=O)(=O)C(F)(F)F)CCCCN(S(=O)(=O)C(F)(F)F)CCCN(S(=O)(=O)C(F)(F)F)CCCCN(S(=O)(=O)C(F)(F)F)CCCN(S(=O)(=O)C(F)(F)F)CCCCN(S(=O)(=O)C(F)(F)F)CCC1)C(F)(F)F`, the EC50 is greater than 200 µM and the IC50 is greater than 200 µM.

As to `O=C1OCC2Cc3sccc3C(c3ccccc3)=C12` (centres undefined), the EC50 is greater than 97.7 µM and the IC50 was greater than 97.7 µM.

Consider `O=C(O)/C(Cl)=C(/Cl)C(=O)Nc1cccc(Cl)c1`, for which the result was inactive.

Turning to `COc1ccc(C(=O)CCN(C)C)cc1`, the EC50 was greater than 200 µM and the IC50 worked out at 36.3 µM.

As for `CC1(O)C(=O)OC2CC([C@]3(O)CCC4[C@@H]5C[C@H]6O[C@]67[C@@H](O)C=CC(=O)[C@]7(C)C5CC[C@@]43C)C1(C)C2` (some centres undefined), the EC50 is greater than 200 µM and the IC50 came out at 11.7 µM.

On to `COc1c2c(c3c(c1CCC(=O)O)OC(C)(C)C=C3)OC(C)(C)C=C2`, for which the EC50 was greater than 200 µM and the IC50 worked out at 138 µM.

On to `CC(=O)NC(CCC(=O)c1ccc(Oc2ccccc2)cc1)(C(=O)O)C(=O)O`, for which the EC50 was greater than 200 µM and the IC50 was greater than 200 µM.

Consider `CSC(=O)c1sc(SC)[n+](-c2ccccc2)c1O`, for which the EC50 was greater than 200 µM and the 50% inhibitory concentration (IC50) turned out to be 10.2 µM.

With `Cc1cn(C2CC(N(O)Cc3ccccc3)C(CO[Si](C)(C)C(C)(C)C)O2)c(=O)[nH]c1=O` (centres undefined), the EC50 is greater than 200 µM; the IC50 was 12 µM and 36.3 µM.

As to `CCOC(=O)c1ccc2c(=O)[nH]nc(CO)c2c1`, the EC50 was greater than 200 µM and the IC50 is 117 µM.

Take `CC(C)S(=O)(=O)ON1C(=O)c2ccc([N+](=O)[O-])cc2C1=O`: the EC50 was greater than 115 µM and the IC50 amounted to 18.2 µM.

As to `C[C@@]1(CO)OC(=O)N2CCC[C@H]21`, the EC50 was greater than 1450 µM and the IC50 is greater than 1450 µM.

Turning to `CCOC(=O)C1(C(=O)OCC)CCC(C(OC)OC)C(CC(=O)OC)C1` (centres undefined), the EC50 was greater than 200 µM and the IC50 was greater than 200 µM.
